Values after ≈ are worked out from the molar mass of the structure shown.
Columns and labels:
[1] = system: Citrobacter freundii; test: Antibacterial activity against Citrobacter freundii by agar dilution method; type: functional
[2] = system: Vibrio cholerae; test: Antibacterial activity against Vibrio cholerae by agar dilution method; type: functional
[3] = system: Mycobacterium tuberculosis; test: Antitubercular activity against Mycobacterium tuberculosis infected in IFNgamma-deficient C57BL/6 mouse assessed bacterial load in lung at 25 mg/kg administered once daily for 8 days measured 28 days post infection; type: functional
[4] = system: Pseudomonas aeruginosa; test: Antibacterial activity against Pseudomonas aeruginosa by agar dilution method; type: functional
[5] = system: Escherichia coli; test: Antibacterial activity against Escherichia coli by agar dilution method; type: functional
[6] = system: Mycobacterium tuberculosis; test: Antitubercular activity against Mycobacterium tuberculosis infected in IFNgamma-deficient C57BL/6 mouse assessed bacterial load in spleen at 25 mg/kg administered once daily for 8 days measured 28 days post infection; type: functional
[7] = system: Klebsiella pneumoniae; test: Antibacterial activity against Klebsiella pneumoniae by agar dilution method; type: functional
[8] = system: Mycobacterium tuberculosis; test: Antitubercular activity against Mycobacterium tuberculosis H37Rv by microplate alamar blue assay; type: functional
[9] = system: Salmonella typhi; test: Antibacterial activity against Salmonella typhi by agar dilution method; type: functional, Salmonella enterica subsp. enterica serovar Typhi; settings: Salmonella enterica
[10] = system: Staphylococcus epidermidis; test: Antibacterial activity against Staphylococcus epidermidis by agar dilution method; type: functional
[11] = system: Staphylococcus aureus; test: Antibacterial activity against Staphylococcus aureus by agar dilution method; type: functional
[12] = system: Shigella flexneri; test: Antibacterial activity against Shigella flexneri by agar dilution method; type: functional
[13] = system: Mycobacterium tuberculosis; test: Antimycobacterial activity against Mycobacterium tuberculosis H37Rv after 3 to 7 days by rapid direct susceptibility test; type: functional
[14] = system: Mycobacterium tuberculosis; test: Potency index, ratio of rifampicin MIC to test compound MIC for Mycobacterium tuberculosis H37Rv; type: functional
[15] = Toxicity in po dosed CF mouse measured after 1 week; type: organism-based; settings: in vivo
[16] = system: Escherichia coli; test: Potency index, ratio of norfloxacin ED50 to test compound ED50 for antibacterial activity against Escherichia coli NCTC 10418 infected in po dosed CF mouse; type: functional
[17] = system: Escherichia coli; test: Antibacterial activity against Escherichia coli NCTC 10418 infected in po dosed CF mouse measured after 1 week; type: functional; settings: NCTC 10418, po, 168 h
[18] = system: HepG2; test: Anticancer activity against human HepG2 cells after 48 hrs by MTT assay; type: functional, cell-based; settings: HepG2, 48 h
[19] = system: SW480; test: Anticancer activity against human SW480 cells after 48 hrs by MTT assay; type: functional, cell-based; settings: SW480, 48 h
[20] = system: A549; test: Anticancer activity against human A549 cells after 48 hrs by MTT assay; type: functional, cell-based; settings: A549, 48 h
[21] = system: HeLa; test: Anticancer activity against human HeLa cells after 48 hrs by MTT assay; type: functional, cell-based
[22] = system: Human immunodeficiency virus 1; test: Antiviral activity against HIV1 3B infected in human MT4 cells after 5 days by spectrophotometric method; type: functional, organism-based; settings: Human immunodeficiency virus 1, 3B, MT4, 120 h

| SMILES | MIC [1] [µg/mL] | MIC [2] [µg/mL] | MIC [4] [µg/mL] | MIC [5] [µg/mL] | MIC [7] [µg/mL] | MIC [9] [µg/mL] | MIC [10] [µg/mL] | MIC [11] [µg/mL] | MIC [12] [µg/mL] | other results |
| --- | --- | --- | --- | --- | --- | --- | --- | --- | --- | --- |
| O=C(O)c1cn(C2CC2)c2cc(N3CCNCC3)c(F)cc2c1=O [CIPROFLOXACIN] | 0.1 to 2.5 (≈ 0.302 to 7.54 µM) | 0.1 to 2.5 (≈ 0.302 to 7.54 µM) | 0.1 to 2.5 (≈ 0.302 to 7.54 µM) | 0.1 to 2.5 (≈ 0.302 to 7.54 µM) | 0.1 to 2.5 (≈ 0.302 to 7.54 µM) | 0.1 to 2.5 (≈ 0.302 to 7.54 µM) | 0.1 to 2.5 (≈ 0.302 to 7.54 µM) | 0.1 to 2.5 (≈ 0.302 to 7.54 µM) | 0.1 to 2.5 (≈ 0.302 to 7.54 µM) | Activity [3]: 6.82 log10CFU; Activity [6]: 4.64 log10CFU; MIC [8]: 2 µg/mL (≈ 6.04 µM) |
| CO/N=C1/C(=O)N(CCn2cc(CN3CCC[C@H]4CN(c5c(F)cc6c(=O)c(C(=O)O)cn(C7CC7)c6c5OC)C[C@H]43)nn2)c2ccc(Br)cc21 |  |  |  |  |  |  |  |  |  | MIC [13]: 0.1 µg/mL (≈ 0.131 µM); Ratio [14]: 4 |
| CCn1cc(C(=O)O)c(=O)c2cc(F)c(N3CCN(CN4C(=O)/C(=N\c5ccc(S(=O)(=O)Nc6ncccn6)cc5)c5ccccc54)CC3)cc21 |  |  |  |  |  |  |  |  |  | LD50 at 168 h [15]: > 4000 mg/kg; Ratio [16]: 4.8; ED50 [17]: 1.25 mg/kg |
| CCn1cc(C(=O)O)c(=O)c2cc(F)c(N3CCN(CN4C(=O)/C(=N\c5ncc(Cc6cc(OC)c(OC)c(OC)c6)c(N)n5)c5cc(Br)ccc54)CC3)cc21 |  |  |  |  |  |  |  |  |  | Ratio [16]: 3.7; ED50 [17]: 1.62 mg/kg |
| O=C1C(=O)N(CN2CCN(c3cc4c(cc3F)c(=O)c(C(=O)O)cn4C3CC3)CC2)c2ccccc21 | 0.1 to 0.5 (≈ 0.204 to 1.02 µM) | 0.1 to 0.5 (≈ 0.204 to 1.02 µM) | 0.1 to 0.5 (≈ 0.204 to 1.02 µM) | 0.1 to 0.5 (≈ 0.204 to 1.02 µM) | 0.1 to 0.5 (≈ 0.204 to 1.02 µM) | 0.1 to 0.5 (≈ 0.204 to 1.02 µM) | 0.1 to 0.5 (≈ 0.204 to 1.02 µM) | 0.1 to 0.5 (≈ 0.204 to 1.02 µM) | 0.1 to 0.5 (≈ 0.204 to 1.02 µM) |  |
| CCn1cc(C(=O)O)c(=O)c2cc(F)c(N3CCNC(C)C3)c(F)c21 (stereo not drawn) [LOMEFLOXACIN] | 0.1 to 2.5 (≈ 0.285 to 7.12 µM) | 0.1 to 2.5 (≈ 0.285 to 7.12 µM) | 0.1 to 2.5 (≈ 0.285 to 7.12 µM) | 0.1 to 2.5 (≈ 0.285 to 7.12 µM) | 0.1 to 2.5 (≈ 0.285 to 7.12 µM) | 0.1 to 2.5 (≈ 0.285 to 7.12 µM) | 0.1 to 2.5 (≈ 0.285 to 7.12 µM) | 0.1 to 2.5 (≈ 0.285 to 7.12 µM) | 0.1 to 2.5 (≈ 0.285 to 7.12 µM) |  |
| CC1CN(c2c(F)c(N)c3c(=O)c(C(=O)O)cn(C4CC4)c3c2F)CC(C)N1CN1C(=O)C(=O)c2ccccc21 (stereo not drawn) |  |  |  |  |  |  |  |  |  | IC50 [18]: 18.3 to 50 µg/mL (≈ 33.2 to 90.7 µM); IC50 [19]: 18.3 to 50 µg/mL (≈ 33.2 to 90.7 µM); IC50 [20]: 18.3 to 50 µg/mL (≈ 33.2 to 90.7 µM); IC50 [21]: 18.3 to 50 µg/mL (≈ 33.2 to 90.7 µM) |
| CCn1cc(C(=O)O)c(=O)c2cc(F)c(N3CCN(CN4C(=O)/C(=N\NC(N)=S)c5cc(Br)ccc54)CC3)cc21 |  |  |  |  |  |  |  |  |  | EC50 [22]: 13.9 µg/mL (≈ 22 µM) |
| COc1cc(Cc2cnc(/N=C3\C(=O)N(CN4CCN(c5cc6c(cc5F)c(=O)c(C(=O)O)cn6C5CC5)CC4)c4ccc(F)cc43)nc2N)cc(OC)c1OC |  |  |  |  |  |  |  |  |  | Activity [3]: 5.26 log10CFU; Activity [6]: 4.08 log10CFU; MIC [8]: 0.78 µg/mL (≈ 0.999 µM) |
| CCn1cc(C(=O)O)c(=O)c2cc(F)c(N3CCN(CN4C(=O)C(=O)c5cc(C)ccc54)C(C)C3)c(F)c21 (stereo not drawn) | 0.25 to 2.5 (≈ 0.477 to 4.77 µM) | 0.25 to 2.5 (≈ 0.477 to 4.77 µM) | 0.25 to 2.5 (≈ 0.477 to 4.77 µM) | 0.25 to 2.5 (≈ 0.477 to 4.77 µM) | 0.25 to 2.5 (≈ 0.477 to 4.77 µM) | 0.25 to 2.5 (≈ 0.477 to 4.77 µM) | 0.25 to 2.5 (≈ 0.477 to 4.77 µM) | 0.25 to 2.5 (≈ 0.477 to 4.77 µM) | 0.25 to 2.5 (≈ 0.477 to 4.77 µM) |  |
| Cc1cc(C)nc(NS(=O)(=O)c2ccc(/N=C3\C(=O)N(CN4C(C)CN(c5c(F)c(N)c6c(=O)c(C(=O)O)cn(C7CC7)c6c5F)CC4C)c4ccccc43)cc2)n1 (stereo not drawn) |  |  |  |  |  |  |  |  |  | IC50 [18]: 18.3 to 50 µg/mL (≈ 22.6 to 61.6 µM); IC50 [19]: 18.3 to 50 µg/mL (≈ 22.6 to 61.6 µM); IC50 [20]: 18.3 to 50 µg/mL (≈ 22.6 to 61.6 µM); IC50 [21]: 18.3 to 50 µg/mL (≈ 22.6 to 61.6 µM) |
